Drawing on US20160083391A1, “TRICYCLIC PIPERAZINE DERIVATIVE” (Sunovion Pharmaceuticals Inc., priority 2014, published 2016), this text covers IC50 for seven compounds.

Each structure is given as a SMILES string.

The assay has as its system PDE1. The experiment in a line: In vitro HTRF PDE1 inhibition assay. It counts as biochemical. The note with it: HTRF cGMP assay, 100 nM cyclic GMP, PDE (1A3, 1B or 1C) with calmodulin, 45 minutes at 37° C.; isoform of the tabulated values not stated. Summed up:
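HTRF cGMP competition assay: PDE1A3, 1B or 1C with calmodulin acting on 100 nM cGMP in 1% DMSO, pH 7.4 buffer with Ca2+ and Mg2+, 45 min at 37 °C. Remaining cGMP detected with d2-cGMP and anti-cGMP cryptate (665/615 nm); IC50 reported as banded categories.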
In general terms: Time-resolved FRET reads energy transfer from a long-lived donor to a nearby acceptor.
For `COc1ccc(CN2CCn3c(nn4c(C(C)C)ncc4c3=O)C2)cc1` [Compound I-178, 3-Isopropyl-7-(4-methoxybenzyl)-8,9-dihydro-6H-imidazo[5,1-f]pyrazino[2,1-c][1,2,4]triazin-11(7H)-one], the IC50 was < 1 µM.

`CC(C)c1ncc2c(=O)n3c(nn12)CN(Cc1ccc(Cl)cc1)CC3` [Compound I-179, 7-(4-Chlorobenzyl)-3-isopropyl-8,9-dihydro-6H-imidazo[5,1-f]pyrazino[2,1-c][1,2,4]triazin-11(7H)-one]: the IC50 is < 1 µM.

Regarding `Cc1cnc(CN2CCn3c(nn4c(C5CCCC5)ncc4c3=O)C2)nc1` [Compound I-201], the IC50 is 1 to 10 µM.

Regarding `O=c1c2cnn(C3CCCC3)c2nc2n1CCN(c1ccccc1Cl)C2` [Compound I-87, 8-(2-Chlorophenyl)-1-cyclopentyl-6,7,8,9-tetrahydropyrazino[1,2-a]pyrazolo[3,4-d]pyrimidin-4(1H)-one], the IC50 lay within 1 to 10 µM.

Regarding `Cc1ncc(CN2CCn3c(nc4c(cnn4C(C)C)c3=O)C2)cn1` [Compound I-194, 1-Isopropyl-8-((2-methylpyrimidin-5-yl)methyl)-6,7,8,9-tetrahydropyrazino[1,2-a]pyrazolo[3,4-d]pyrimidin-4(1H)-one], the IC50 was > 10 µM.

Consider `CC(C)n1ncc2c(=O)n3c(nc21)C(c1ccccc1)N(C)CC3` (racemic) [Compound I-60, (±)-1-Isopropyl-8-methyl-9-phenyl-6,7,8,9-tetrahydropyrazino[1,2-a]pyrazolo[3,4-d]pyrimidin-4(1H)-one], for which the IC50 is > 10 µM.

In turn, `CC1c2nc3c(cnn3C3CCCC3)c(=O)n2CCN1Cc1ccc(Cl)cc1` (racemic) [Compound I-117, (±)-8-(4-Chlorobenzyl)-1-cyclopentyl-9-methyl-6,7,8,9-tetrahydropyrazino[1,2-a]pyrazolo[3,4-d]pyrimidin-4(1H)-one] displayed an IC50 of 1 to 10 µM.

As usually defined, the IC50 is the concentration that gives 50% inhibition. Low readings indicate higher potency, high ones lower potency.
